Assay results published in paper PMC12615753, “Glutathione as a taste modulator: molecular mechanisms of interaction with umami and sweet taste receptors” (Food Chemistry: Molecular Sciences, 2025).

Experiments:
[1] = biological target: T1, hTAS1R2/hTAS1R3 (Homo sapiens, UniProt Q7RTX0+Q8TE23); assay: Calcium assay in transfected HEK293T/17 cells, sweet taste receptor; format: cell-based; details: for EC50: agonist alone, Fig. 2
T1 construct: expressed in transfected cells
T1 sequence (Q8TE23 20-839): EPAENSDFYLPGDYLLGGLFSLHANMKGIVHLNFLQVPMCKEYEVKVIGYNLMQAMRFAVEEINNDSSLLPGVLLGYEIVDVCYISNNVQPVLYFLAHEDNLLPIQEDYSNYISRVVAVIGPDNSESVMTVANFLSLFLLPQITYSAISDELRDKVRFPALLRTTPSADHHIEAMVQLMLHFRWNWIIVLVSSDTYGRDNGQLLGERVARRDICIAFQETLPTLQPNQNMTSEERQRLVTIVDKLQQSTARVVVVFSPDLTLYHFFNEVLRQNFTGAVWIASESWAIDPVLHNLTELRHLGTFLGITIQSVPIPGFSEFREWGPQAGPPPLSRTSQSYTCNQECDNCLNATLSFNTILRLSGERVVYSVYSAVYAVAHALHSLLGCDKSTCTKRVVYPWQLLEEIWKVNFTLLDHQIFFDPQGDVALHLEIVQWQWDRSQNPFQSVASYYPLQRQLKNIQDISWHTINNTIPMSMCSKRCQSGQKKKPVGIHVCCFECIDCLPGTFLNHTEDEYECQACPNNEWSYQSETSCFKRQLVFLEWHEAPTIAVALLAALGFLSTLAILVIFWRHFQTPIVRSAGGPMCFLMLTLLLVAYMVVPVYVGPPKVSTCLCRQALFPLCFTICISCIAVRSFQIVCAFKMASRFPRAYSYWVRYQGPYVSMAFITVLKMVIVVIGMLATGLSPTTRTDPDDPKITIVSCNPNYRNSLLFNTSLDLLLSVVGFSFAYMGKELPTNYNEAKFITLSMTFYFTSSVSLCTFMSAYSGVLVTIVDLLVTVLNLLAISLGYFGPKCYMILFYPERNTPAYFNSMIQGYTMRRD
T1 sequence (Q7RTX0 21-852): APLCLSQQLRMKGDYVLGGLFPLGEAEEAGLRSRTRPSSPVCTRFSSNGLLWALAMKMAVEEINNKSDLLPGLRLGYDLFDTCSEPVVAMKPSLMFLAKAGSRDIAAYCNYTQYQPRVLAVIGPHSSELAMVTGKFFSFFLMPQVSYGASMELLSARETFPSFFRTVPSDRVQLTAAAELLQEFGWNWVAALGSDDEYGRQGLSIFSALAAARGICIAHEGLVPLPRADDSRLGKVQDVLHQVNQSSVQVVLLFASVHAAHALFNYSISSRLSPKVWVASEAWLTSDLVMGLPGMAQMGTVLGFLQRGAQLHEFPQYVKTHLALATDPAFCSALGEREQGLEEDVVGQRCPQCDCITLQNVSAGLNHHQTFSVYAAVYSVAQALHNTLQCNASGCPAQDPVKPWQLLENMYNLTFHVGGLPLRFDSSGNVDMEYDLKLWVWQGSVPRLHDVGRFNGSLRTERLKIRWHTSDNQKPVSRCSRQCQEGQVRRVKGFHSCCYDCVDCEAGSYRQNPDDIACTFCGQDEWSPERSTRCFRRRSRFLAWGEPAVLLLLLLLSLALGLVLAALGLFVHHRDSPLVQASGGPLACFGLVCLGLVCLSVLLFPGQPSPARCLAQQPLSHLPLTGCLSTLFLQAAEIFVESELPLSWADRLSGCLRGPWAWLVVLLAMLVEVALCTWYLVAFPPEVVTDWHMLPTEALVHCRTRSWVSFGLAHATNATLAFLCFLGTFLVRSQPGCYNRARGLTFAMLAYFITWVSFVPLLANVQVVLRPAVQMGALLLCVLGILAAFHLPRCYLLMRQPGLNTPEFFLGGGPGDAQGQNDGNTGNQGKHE
Experimental: (§1) HEK293T/17 cells (ATCC CRL-11268) were seeded into clear bottom black 96-well plates coated with poly-D-lysine at a density of 32500 cells/well in 100 μL of DMEM containing 4.5 g/L glucose and supplemented with penicillin/streptomycin, 2 mM GlutaMAX and 10 % dialyzed fetal bovine serum. The plates were incubated for 24 h at 37 °C and 7.3 % CO2 in a humidified atmosphere. After incubation, using Fugene® 4 K (0.46 μL/well, Promega, Illkirch, France), the cells were transiently transfected with pcDNA3-hTAS1R1-WT (60 ng/well) or TAS1R1 mutants, pcDNA4-rTAS1R3 (60 ng/well), pcDNA3-Gα15i2 (10 ng/well), and pGP-CMV-GCaMP6s (Addgene #40753; 10 ng/well) as a genetically encoded calcium indicator. Twenty-four hours after transfection, the HEK293T/17 cells were rinsed with 100 μL of C1 buffer (130 mM NaCl, 5 mM KCl, 10 mM HEPES, 2 mM CaCl2, and 5 mM sodium pyruvate, pH 7.4). For each molecule tested, a semi-logarithmic concentration range was created consisting of seven increasing concentrations and a negative control (zero dose) made of buffer C1. […] After 20 s of basal fluorescence calcium measurement, the cells were stimulated via automatic injection of a range of compounds in eight wells, and the signal emission was recorded for an additional 70 s, via a FlexStation 3® fluorometric microplate reader (Molecular Devices, San Jose, CA, USA). […] The emitted fluorescence was measured at a wavelength of 510 nm after excitation at 488 nm. […] For each well, the decrease in the raw fluorescence as the relative fluorescence changed was calculated as ΔF/F0. Replicates were averaged for the wells subjected to the same stimuli, the background signal was subtracted, and the fluorescence changes in mock-transfected cells were subtracted. The half-maximal effective concentration (EC50) and maximal signal amplitude (max ∆F/F0) were calculated via non-linear regression of the sigmoidal function four-parameter logistic equation [f(x) = min + (max − min)/(1 + (x/EC50)^nH)] via SigmaPlot 15.0 software (Grafiti LLC, Palo Alto, CA, USA). […]

[2] = biological target: T2, hTAS1R1 (Homo sapiens, UniProt Q7RTX1); assay: Calcium assay, subunit expressed alone; format: cell-based
T2 construct: UniProtKB number Q7RTX1–1); expressed in transfected cells; host or cells: HEK293 cells
T2 sequence (Q7RTX1 21-841): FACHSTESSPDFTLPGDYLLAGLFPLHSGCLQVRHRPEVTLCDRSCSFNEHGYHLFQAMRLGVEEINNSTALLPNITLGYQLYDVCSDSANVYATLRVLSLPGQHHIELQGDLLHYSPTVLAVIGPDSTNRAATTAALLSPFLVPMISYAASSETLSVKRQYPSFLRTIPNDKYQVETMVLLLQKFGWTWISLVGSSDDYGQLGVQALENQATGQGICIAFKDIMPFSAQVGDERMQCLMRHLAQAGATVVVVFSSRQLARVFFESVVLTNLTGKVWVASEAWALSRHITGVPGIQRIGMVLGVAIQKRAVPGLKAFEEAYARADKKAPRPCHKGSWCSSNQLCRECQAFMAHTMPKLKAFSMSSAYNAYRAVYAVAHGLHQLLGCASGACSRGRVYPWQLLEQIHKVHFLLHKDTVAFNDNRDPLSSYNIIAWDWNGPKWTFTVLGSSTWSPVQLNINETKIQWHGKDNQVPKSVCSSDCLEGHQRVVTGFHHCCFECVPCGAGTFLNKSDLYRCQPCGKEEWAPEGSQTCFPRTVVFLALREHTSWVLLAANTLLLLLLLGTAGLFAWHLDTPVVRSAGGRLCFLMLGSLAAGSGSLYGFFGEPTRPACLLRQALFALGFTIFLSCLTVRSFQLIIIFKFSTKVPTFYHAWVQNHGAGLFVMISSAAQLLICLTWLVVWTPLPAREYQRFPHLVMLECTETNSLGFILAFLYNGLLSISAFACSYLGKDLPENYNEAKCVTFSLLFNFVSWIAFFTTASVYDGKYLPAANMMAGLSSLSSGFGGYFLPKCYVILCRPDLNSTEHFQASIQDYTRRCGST
Experimental: as §1

Row | EC50 ([2]; S807 alone, Fig. 5D) [µM] | SMILES | effect of 10 mM GSH on the response to sucralose [1] | EC50 [1] [µM] | effect of 10 mM GSH on the response to S807 [2] | response of transfected cells ([2]; GSH alone, Fig. 5A)
1 | – | N[C@@H](CCC(=O)N[C@@H](CS)C(=O)NCC(=O)O)C(=O)O [GSH, γ-L-glutamyl-L-cysteinyl-glycine] | unaffected | 591 ± 344 | not increased | did not respond
2 | 0.89 ± 0.13 | CCCC(CCC)NC(=O)c1ccc2c(c1)OCO2 [S807, N-(heptan-4-yl)benzo[d][1,3]dioxole-5-carboxamide, reference compound] | – | – | – | –
3 | – | OC[C@H]1O[C@H](O[C@]2(CCl)O[C@H](CCl)[C@@H](O)[C@@H]2O)[C@H](O)[C@@H](O)[C@H]1Cl [sucralose, reference compound] | – | 61 ± 2 | – | –
